Series [1] is described as follows: LD50 in rats (acute toxicity). The note with it: rat, in vivo. From the text: Accordingly, it can be advantageously used for the treatment of hemorrhoidal diseases.
The test system of series [2] is recto-anal edema induced by a croton oil mixture. Briefly: Suppressive effect on recto-anal edema induced by croton oil mixture. The format is in vivo, Male Wistar rats. The settings on record: 4% EPC-K in petrolatum, 24 h, * p < 0.05 vs control. On the procedure: Effects of Compound (I) on Models with Hemorrhoidal Disease Induced by Croton Oil Mixture
The suppressive effect of Compound (I) on recto-anal edema induced by a croton oil mixture was examined.
1. Animals used: Male Wistar rats weighing 140-250 g
2. Test substance: EPC-K added to petrolatum base material to 4 w/w %
Composition: distilled water:pyridine:diethyl ether:6% croton oil in diethyl ether solution=1:4:5:10
Preparation: Water and a small amount of diethyl ether were added to pyridine and mixed. Then, a 6% croton oil diethyl ether solution was added and the remaining diethyl ether was added thereto. The mixture was vigorously shaken.
A stype of a swab was impregnated with the croton oil mixture (160 μl) and the entire stype was inserted into the rectum for 10 seconds.
5. Determination of edema
The test substance was administered intrarectally immediately after the induction of inflammation, and the anus was sealed for 4 hours with a clip so as to prevent leaking out of the substance.
At 24 hours after the induction of inflammation, the rats were exsanguinated to death and the weight of the recto-anal part, cut out in 15 mm length from 5 mm from the circular hairline on annal epithelium, was measured. The recto-anal coefficient (RAC=Wra·Wb^-1 ·10^3) was calculated on the basis of the weight of the recto-anal part (Wra) and body weight (Wb) and used as an index of inflammation.

The next series deals with rectal mucosa. The experiment in a line: Rectal mucosa irritating action. The note with it: intrarectal, 5 h; for Irritation potency, Index value: mean ± standard error (n = 6); for Irritation potency, Central value: score 0-4 of Table 1. The format is in vivo, Male Wistar rats. The procedure: Rectal Mucosa Irritating Action of Compound (I)
The rectal mucosa irritating action of Compound (I) was examined as in the following.
1. Animals used: Male Wistar rats weighing 135-200 g
2. Test substance: EPC-K added to an oil-in-water type cream
The rats were fasted for 48 hours and the test substance was intrarectally administered. Five hours later, the rats were exsanguinated to death. The rectum was removed and the mucosa was visually observed. The condition of the mucosa was expressed in numerical units according to the evaluation standard shown in Table 1, and a central value and an average value were calculated, based on which the irritation by the test substance was classified according to the evaluation standard for irritation shown in Table 2.

Another series concerns rectal tissues. The experiment in a line: Wound healing accelerating effect on rectal tissues (hydroxyproline content). The note with it: 1% EPC-K, average (n=5). The format is in vivo, Male Wistar rats. The procedure:
Wound Healing Accelerating Effect of Compound (I) on Rectal Tissues
The wound healing accelerating effect of Compound (I) on rectal tissues was examined using the amount of hydroxyproline (Hyp) in tissue as an index.
1. Animals used: Male Wistar rats weighing 150-250 g
2. Test substance: EPC-K added to an oil-in-water cream to 1 w/w %
The rats were fasted for 24 hours and a narrow saw was inserted in the rectum. A wound was made by two reciprocations of the saw in the rectum. The test substance was injected in the rectum once a day by 100 μl beginning immediately after forming of the wound. The rats were exsanguinated to death at 4 hours, 1, 3, 6 or 9 days thereafter and the rectum was removed. The removed rectum was delipidized, shredded and dried. After acid hydrolysis, pH was adjusted and hydroxyproline content was measured by the chloramine T oxidation method.

The mark [3] stands for this setting: 0.2% EPC-K in oil-in-water cream.

The structures appear in SMILES notation. Counter-ions that a name gives are not always drawn. Bounds are passed on as bounds.

On to `Cc1c(C)c2c(c(C)c1OP(=O)(O)OC1=C(O)[C@@H]([C@@H](O)CO)OC1=O)CCC(C)(CCCC(C)CCCC(C)CCCC(C)C)O2` (mixture of isomers) [EPC-K, L-ascorbic acid DL-α-tocopheryl phosphate diester potassium salt], for which the LD50 in series [1] (intravenous injection to rats) is at least 100 mg/kg; in series [1] (oral administration to rats), at least 5000 mg/kg. The Edema suppression in series [2] turned out to be 19.5%. Besides, in series [2] (mean ± standard error (n = 10), control 2.36, untreated 0.67), the “Recto-anal coefficient (RAC)” value was 2.03 ± 0.07. In addition, the “Irritation potency, Index value” in the series on rectal mucosa (setting [3]) was found to be 0.67 ± 0.42; in the series on rectal mucosa (1% EPC-K in oil-in-water cream), 0.50 ± 0.34; with rectal mucosa (5% EPC-K in oil-in-water cream) it was 0.83 ± 0.54. Further, the “Irritation potency, Central value” in the series with rectal mucosa (setting [3]), with rectal mucosa (1% EPC-K in oil-in-water cream) and with rectal mucosa (5% EPC-K in oil-in-water cream) was 0 in each case. For the same molecule, the “Hydroxyproline content in rectal tissues” value in the series with rectal tissues (4 hr later, control 19.67, normal rectum 22.26) is 19.38 µg/mg; in the series with rectal tissues (1 day later, control 19.69, normal rectum 22.26), 21.70 µg/mg; with rectal tissues (3 days later, control 23.46, normal rectum 22.26), 24.75 µg/mg; with rectal tissues (6 days later, control 25.63, normal rectum 22.26) it was 25.22 µg/mg; in the series on rectal tissues (9 days later, control 27.38, normal rectum 22.26), 26.53 µg/mg.

One may read the LD50 as the dose expected to kill half of the subjects tested.

The record behind these values is patent publication US5489576A, “Therapeutic agent for hemorrhoidal diseases” (Senju Pharmaceutical Co., Ltd., priority 1993, dated 1996).
